# Molecular target: Carbonic anhydrase 2 (Homo sapiens, UniProt P00918)
structure (smiles),measurement,value
[F-].[Na+] [SODIUM FLUORIDE],Ki,> 200 mM
